Assay results: ChEMBL document CHEMBL1926604, “Design and synthesis of pyridin-2-ylmethylaminopiperidin-1-ylbutyl amide CCR5 antagonists that are potent inhibitors of M-tropic (R5) HIV-1 replication” (Bioorg Med Chem Lett, 2011)

Columns and labels:
[1] = test system: Human immunodeficiency virus 1; assay: Antiviral activity against R5 tropic Human immunodeficiency virus 1 BAL infected in human PBMC cells assessed as reduction in viral replication by p24 detection based ELISA; assay type: functional, organism-based
[2] = Cytotoxic activity against human PBMC assessed as reduction in cell viability; assay type: cell-based
[3] = Oral bioavailability in dog; assay type: ADME, organism-based, Canis lupus familiaris; settings: in vivo
[4] = Volume of distribution at steady state in rat at 10 umol/kg, iv; assay type: ADME, organism-based; settings: in vivo, 10 umol/kg, read-out: Vdss
[5] = Clearance in rat at 10 umol/kg, iv; assay type: ADME, organism-based; settings: in vivo
[6] = AUC (0 to infinity) in rat; assay type: ADME, organism-based; set-up: time infinity; concentration or dose not given beside the values; settings: plasma
[7] = Half life in dog at 5 umol/kg, iv; assay type: ADME, organism-based, Canis lupus familiaris; settings: in vivo
[8] = Volume of distribution at steady state in dog at 5 umol/kg, iv; assay type: ADME, organism-based, Canis lupus familiaris; settings: in vivo, read-out: Vdss
[9] = Half life in rat at 10 umol/kg, iv; assay type: ADME, organism-based; settings: in vivo, 10 umol/kg
[10] = Cmax in dog; assay type: ADME, organism-based, Canis lupus familiaris; settings: in vivo
[11] = Cmax in rat; assay type: ADME, organism-based; settings: in vivo
[12] = Oral bioavailability in rat; assay type: ADME, organism-based; settings: in vivo
[13] = Clearance in dog at 5 umol/kg, iv; assay type: ADME, organism-based, Canis lupus familiaris; settings: in vivo
[14] = Plasma protein binding in human plasma at 1 uM after 5 hrs by LC-MS/MS analysis; assay type: ADME, cell-free; settings: read-out: PPB (converted)
[15] = AUC (0 to infinity) in dog; assay type: ADME, organism-based, Canis lupus familiaris; set-up: time infinity; concentration or dose not given beside the values; settings: plasma

Compound	IC50 [1] [µM]	CC50 [2] [µM]	fraction unbound at 5 h, 1 µM [14]	also measured
CC(CCNC(=O)c1c(Cl)cncc1Cl)N1CCC(N(Cc2cccc(C#N)c2)c2ccc(C(F)(F)F)cc2)CC1 (stereo unspecified)	0.001	12.3	–	–
COc1ccc(N(Cc2cnccc2C)C2CCN([C@H](C)CCNC(=O)c3c(C)ccnc3Cl)CC2)cc1	0.0223	> 37.7	0.12	bioavailability [3]: 4%; Vd [4]: 15.4 L/kg; clearance [5]: 3.52 L/h/kg; AUC(0-inf) [6]: 18.3 µM·h; half-life [7]: 3.3 h; Vd [8]: 10.3 L/kg; half-life [9]: 3 h; Cmax [10]: 0.15 µM; Cmax [11]: 3.11 µM; bioavailability [12]: 70%; clearance [13]: 2.19 L/h/kg; AUC(0-inf) [15]: 0.2 µM·h
COc1cccc(CN(c2ccc(Br)cc2)C2CCN(C(C)CCNC(=O)c3c(Cl)cncc3Cl)CC2)c1 (stereo unspecified)	2.88	6.4	–	–
Cc1ccncc1CN(c1ccc([S+](C)[O-])cc1)C1CCN([C@H](C)CCNC(=O)c2c(C)ncnc2C)CC1 (stereo partly specified)	> 32.1	> 32.4	–	–
COc1ccc(N(Cc2cccnc2)C2CCN([C@H](C)CCNC(=O)c3c(C)cc(F)nc3C)CC2)cc1	0.0296	> 36.7	0.14	–
COc1ccc(N(Cc2ccccc2)C2CCN(C(C)CCNC(=O)c3c(Cl)cncc3Cl)CC2)cc1 (stereo unspecified)	2.17	36.5	–	–
CC(CCNC(=O)c1c(Cl)cncc1Cl)N1CCC(N(Cc2cccc(Cl)c2)c2ccc(Br)cc2)CC1 (stereo unspecified)	0.4	7.3	–	–
COCCOc1ccc(N(Cc2cnccc2C)C2CCN([C@H](C)CCNC(=O)c3c(C)cc(Cl)nc3C)CC2)cc1	0.002	> 32.7	0.15	bioavailability [3]: < 1%; Vd [4]: 9.2 L/kg; clearance [5]: 3.67 L/h/kg; AUC(0-inf) [6]: 7.18 µM·h; half-life [7]: 1.3 h; Vd [8]: 4.9 L/kg; half-life [9]: 1.7 h; Cmax [10]: 0.01 µM; Cmax [11]: 1.07 µM; bioavailability [12]: 27%; clearance [13]: 9.4 L/h/kg; AUC(0-inf) [15]: 0.02 µM·h
COc1ccc(N(Cc2cccc(C#N)n2)C2CCN([C@H](C)CCNC(=O)c3c(C)cc(Cl)nc3C)CC2)cc1	0.0035	> 35.1	0.16	bioavailability [3]: 15%; half-life [7]: 0.8 h; Vd [8]: 3 L/kg; Cmax [10]: 0.52 µM; clearance [13]: 2.56 L/h/kg; AUC(0-inf) [15]: 0.72 µM·h
CC(CCNC(=O)c1c(Cl)cncc1Cl)N1CCC(N(Cc2ccc(Cl)cc2)c2ccc(Br)cc2)CC1 (stereo unspecified)	> 1.3	4.3	–	–
COCCOc1ccc(N(Cc2cnccc2C)C2CCN([C@H](C)CCNC(=O)c3c(C)cc(F)nc3C)CC2)cc1	0.0231	> 32.7	0.19	–
COCCOc1ccc(N(Cc2cnccc2C)C2CCN([C@H](C)CCNC(=O)c3c(C)cc(C#N)nc3C)CC2)cc1	0.0323	> 32.6	0.08	–
CC(CCNC(=O)c1c(Cl)cncc1Cl)N1CCC(N(Cc2ccccc2Cl)c2ccc(Br)cc2)CC1 (stereo unspecified)	> 1.25	5.7	–	–
CC(CCNC(=O)c1c(Cl)cncc1Cl)N1CCC(N(Cc2cccc(C#N)c2)c2ccc(C#N)cc2)CC1 (stereo unspecified)	0.376	33.6	–	–
COc1ccc(N(Cc2cnccc2C)C2CCN([C@H](C)CCNC(=O)c3c(C)cncc3C)CC2)cc1	11.5	> 38.8	–	–
COc1ccc(N(Cc2cnccc2C)C2CCN([C@H](C)CCNC(=O)c3c(C)cc(F)nc3C)CC2)cc1	0.0022	> 36.3	0.21	bioavailability [3]: 10%; Vd [4]: 4.6 L/kg; clearance [5]: 0.996 L/h/kg; AUC(0-inf) [6]: 10.9 µM·h; half-life [7]: 3 h; Vd [8]: 8.3 L/kg; half-life [9]: 3.3 h; Cmax [10]: 0.41 µM; Cmax [11]: 1.27 µM; bioavailability [12]: 3%; clearance [13]: 1.92 L/h/kg; AUC(0-inf) [15]: 0.65 µM·h
CC(CCNC(=O)c1c(Cl)cncc1Cl)N1CCC(N(Cc2ccccc2)c2ccc(OC(F)(F)F)cc2)CC1 (stereo unspecified)	0.059	4	–	–

Compound	IC50 [1] [µM]	CC50 [2] [µM]	fraction unbound at 5 h, 1 µM [14]	also measured
COc1ccc(N(Cc2cccc(C#N)n2)C2CCN([C@H](C)CCNC(=O)c3c(C)cc(C#N)nc3C)CC2)cc1	0.0039	> 36.3	0.09	–
CC(CCNC(=O)c1c(Cl)cncc1Cl)N1CCC(N(Cc2ccccc2)c2ccc(Br)cc2)CC1 (stereo unspecified)	0.22	–	–	–
CC(CCNC(=O)c1c(Cl)cncc1Cl)N1CCC(N(Cc2ccccc2)c2ccc(C(=O)N(C)C)cc2)CC1 (stereo unspecified)	9.63	> 30	–	–
CC(CCNC(=O)c1c(Cl)cncc1Cl)N1CCC(N(Cc2cccc(C#N)c2)c2ccc(Br)cc2)CC1 (stereo unspecified)	0.089	6.7	–	–
CC(CCNC(=O)c1c(Cl)cncc1Cl)N1CCC(N(Cc2cccc(C#N)c2)c2ccc(OC(F)(F)F)cc2)CC1 (stereo unspecified)	0.002	6	< 0.001	bioavailability [3]: 36%; Vd [4]: 23.7 L/kg; clearance [5]: 7.9 L/h/kg; AUC(0-inf) [6]: 7.3 µM·h; half-life [7]: 5.4 h; Vd [8]: 6 L/kg; half-life [9]: 5 h; Cmax [10]: 0.75 µM; Cmax [11]: 0.53 µM; bioavailability [12]: 57%; clearance [13]: 0.9 L/h/kg; AUC(0-inf) [15]: 5.11 µM·h
Cc1ccncc1CN(c1ccc(OCC(N)=O)cc1)C1CCN([C@H](C)CCNC(=O)c2c(C)cc(C#N)nc2C)CC1	0.0033	> 34.3	0.11	–
COc1ccc(N(Cc2cccc(C#N)n2)C2CCN([C@H](C)CCNC(=O)c3c(C)cc(F)nc3C)CC2)cc1	0.0036	> 35.8	0.21	–
Cc1ccncc1CN(c1ccccc1)C1CCN([C@H](C)CCNC(=O)c2c(C)cc(C#N)nc2C)CC1	–	–	0.06	–
CC(CCNC(=O)c1c(Cl)cncc1Cl)N1CCC(N(Cc2ccccc2)c2ccc(C#N)cc2)CC1 (stereo unspecified)	0.38	9.7	–	–
COc1ccc(N(Cc2cnccc2C)C2CCN([C@H](C)CCNC(=O)c3c(C)cc(C(=O)NC(C)C)nc3C)CC2)cc1	0.00096	> 32.8	0.11	bioavailability [3]: 5%; half-life [7]: 2.8 h; Vd [8]: 5.2 L/kg; Cmax [10]: 0.92 µM; clearance [13]: 1.27 L/h/kg; AUC(0-inf) [15]: 0.48 µM·h
COc1ccc(N(Cc2cnccc2C)C2CCN([C@H](C)CCNC(=O)c3c(C)ccnc3C)CC2)cc1	1.04	> 38.9	0.05	–
CC(CCNC(=O)c1c(Cl)cncc1Cl)N1CCC(N(Cc2ccccc2)c2ccc(C(F)(F)F)cc2)CC1 (stereo unspecified)	0.11	8.1	–	–
COC(=O)c1ccc(N(Cc2ccccc2)C2CCN(C(C)CCNC(=O)c3c(Cl)cncc3Cl)CC2)cc1 (stereo unspecified)	0.177	21.4	–	–
COc1ccc(N(Cc2cccc(C#N)c2)C2CCN(C(C)CCNC(=O)c3c(Cl)cncc3Cl)CC2)cc1 (stereo unspecified)	0.014	> 1.76	–	–
COc1ccc(N(Cc2cnccc2C)C2CCN([C@H](C)CCNC(=O)c3c(C)cc(C#N)nc3C)CC2)cc1	0.0254	> 34.8	0.02	–
CC(CCNC(=O)c1c(Cl)cncc1Cl)N1CCC(N(Cc2ccccc2)c2ccc(Oc3ccc(C(=O)O)cc3)cc2)CC1 (stereo unspecified)	0.096	22.1	< 0.001	bioavailability [3]: 35%; Vd [4]: 4.2 L/kg; clearance [5]: 1.8 L/h/kg; AUC(0-inf) [6]: 9.07 µM·h; half-life [7]: 1.5 h; Vd [8]: 0.4 L/kg; half-life [9]: 4.8 h; Cmax [10]: 11.2 µM; Cmax [11]: 2.79 µM; bioavailability [12]: 16%; clearance [13]: 0.3 L/h/kg; AUC(0-inf) [15]: 14.5 µM·h
